# Data taken from patent US9238647B2, “P2X3 receptor antagonists for treatment of pain” (Merck Sharp & Dohme Corp., priority 2009, dated 2016).
# Molecular target: T1, human P2X3 (Homo sapiens, UniProt P56373)
# T1 construct: expressed in transfected cells
# T1 sequence (P56373 1-397): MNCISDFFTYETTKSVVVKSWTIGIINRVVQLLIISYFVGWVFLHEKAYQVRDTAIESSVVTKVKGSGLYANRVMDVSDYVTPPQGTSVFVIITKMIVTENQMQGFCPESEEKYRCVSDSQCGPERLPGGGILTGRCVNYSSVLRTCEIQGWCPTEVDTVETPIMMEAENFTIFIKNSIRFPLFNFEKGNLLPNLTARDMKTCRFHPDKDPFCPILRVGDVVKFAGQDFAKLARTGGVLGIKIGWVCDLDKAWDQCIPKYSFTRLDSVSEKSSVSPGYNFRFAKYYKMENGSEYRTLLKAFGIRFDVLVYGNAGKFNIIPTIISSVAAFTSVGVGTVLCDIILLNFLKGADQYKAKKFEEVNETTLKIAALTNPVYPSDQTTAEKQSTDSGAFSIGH
# Test: Intracellular Calcium Measurement to Assess Antagonist Affinity (FLIPR, Fluo-4, α,β-meATP agonist)
# Assay type: cell-based
# Details: cells expressing human P2X3; agonist α,β-meATP at EC50; antagonist added 10 min before agonist
# Text: Generation of a Human P2X3 and P2X2/3 Stable Cell Line—Human P2X3 receptor cDNA (Accession number NM_002559) was subcloned as a 5′XhoI and 3′HindIII fragment into the expression vector pcDNA5/FRT (Invitrogen). Human P2X2 receptor cDNA (Accession number NM_174873) was subcloned as a 5′EcoRI and 3′NotI fragment into the expression vector pIRESneo2 (BD Biosciences Clontech). The human P2X3 expression construct was transfected using Lipofectamine 2000 (Invitrogen) into Flp-in-293 cells (Invitrogen) according to the manufacturer's directions. Cells positive for flp-mediated recombination of […] P2X3 were selected using 150 μg/ml hygromycin. […]
# Intracellular Calcium Measurement to Assess Antagonist Affinity—A fluorescent imaging plate reader (FLIPR; Molecular Devices) was used to monitor intracellular calcium levels using the calcium-chelating dye Fluo-4 (Molecular Probes). The excitation and emission wavelengths used to monitor fluorescence were 488 nm and 530 nm, respectively. […] During this period fluorescence data is collected at 3 sec intervals followed by 10 sec intervals. […] Following agonist addition fluorescence was measured at 5 sec intervals and analyzed based on the increase in peak relative fluorescence units (RFU) compared to the basal fluorescence. […]
smiles,measurement,value
"Cc1ccc(-c2cc(C(=O)N[C@H](C)c3ccc(C(F)(F)F)nc3)cc3nncn23)cc1 [Example 4.3, 5-(4-Methylphenyl)-N-{(1R)-1-[6-(trifluoromethyl)pyridin-3-yl]ethyl}[1,2,4]triazolo[4,3-a]pyridine-7-carboxamide]",IC50,200 nM
